Read-outs that look alike come from different tables or passages of the source.
Legend:
[1] = target: T1, E. coli DdlB enzyme (D-alanine:D-alanine ligase) (Escherichia coli, UniProt P07862); test: biochemical; conditions: read-out: DdlB RA; for remaining activity at 2200 µM: tested concentration 2.2 mM; for remaining activity at 2000 µM: tested concentration 2.0 mM; for remaining activity at 1700 µM: tested concentration 1.7 mM; for remaining activity at 1800 µM: tested concentration 1.8 mM; for remaining activity at 1900 µM: tested concentration 1.9 mM; for remaining activity at 2100 µM: tested concentration 2.1 mM
T1 construct: made in house; host or cells: E. coli

[2] = Solubility at tested concentrations in fragment library screening; assay type: physicochemical
From the text: (§1) Supplement IENZ_A_2149745_SM2502.zip/DDlB_CDR05_SI_20221103.xlsx, sheet "Fragment library screening" | column: Solubility at tested concentrations

[3] = Solubility at tested concentrations in the fragment library screening; assay type: physicochemical
From the text: as §1

[4] = Solubility at tested concentrations (fragment library screening); assay type: physicochemical
From the text: as §1

[5] = at the Tested concentration [mM]

SMILES: Cc1ccccc1-n1nnnc1C1(N(C)C)CCCC1 [Compound J034-0206]
- remaining activity at 2200 µM ([1]; residual activity): 91%
- Solubility at tested concentrations ([2]; tested concentration 2.2 mM): not soluble

SMILES: O=S(=O)(NC1CCCCCC1)c1ccc(F)cc1 [Compound Y030-0828]
- remaining activity at 2000 µM ([1]; residual activity): 89%
- Solubility at tested concentrations ([2]; tested concentration 2.0 mM): not soluble

SMILES: CC(C)Oc1n[nH]c(-c2ccc(Cl)cc2Cl)n1 [Compound V017-7311]
- remaining activity at 2200 µM ([1]; residual activity): 98%
- Solubility at tested concentrations ([2]; tested concentration 2.2 mM): not soluble

SMILES: CC1=C(c2cccc(Cl)c2)S(=O)(=O)N=C1NC(C)C [Compound E013-2266]
- Solubility at tested concentrations [3, 5]: not soluble

SMILES: CC(C)(C)OC(=O)NCc1cccc(-c2cncs2)c1 [Compound V029-2538]
- remaining activity at 1700 µM ([1]; residual activity): 69%
- Solubility at tested concentrations ([2]; tested concentration 1.7 mM): not soluble

SMILES: CCCCc1ccc2ncc(C(=O)O)c(O)c2c1 [Compound Y044-2907]
- remaining activity at 2000 µM [1]: 85%
- Solubility at tested concentrations ([3]; tested concentration 2.0 mM): not soluble

SMILES: O=C1CSC(c2ccccc2)N1c1ccccc1 (stereo not drawn) [Compound 2339-2195]
- remaining activity at 2000 µM [1]: 103%
- Solubility at tested concentrations ([3]; tested concentration 2.0 mM): not soluble

SMILES: O=S(=O)(Cc1ccc(Cl)cc1)N1CCOCC1 [Compound Y031-1160]
- remaining activity at 2200 µM ([1]; residual activity): 118%
- Solubility at tested concentrations ([2]; tested concentration 2.2 mM): not soluble

SMILES: O=S(=O)(c1c[nH]cn1)N1CCCC1c1cccc(F)c1 (stereo not drawn) [Compound D399-0575]
- Solubility at tested concentrations [3, 5]: not soluble

SMILES: O=C(O)c1cnn2c(-c3ccco3)ccnc12 [Compound Y504-8728]
- remaining activity at 2200 µM [1]: 56%
- Solubility at tested concentrations ([3]; tested concentration 2.2 mM): not soluble

SMILES: COc1ccccc1NC(=O)NC1COc2ccccc2C1 (stereo not drawn) [Compound G765-0207]
- Solubility at tested concentrations [3, 5]: not soluble

SMILES: O=C(O)c1nccnc1C(=O)Nc1ccc([N+](=O)[O-])cc1 [Compound C612-1047]
- remaining activity at 1700 µM [1]: 38%
- Solubility at tested concentrations ([3]; tested concentration 1.7 mM): not soluble

SMILES: Cc1ccc(C)c(S(=O)(=O)N2CCCC(C)C2)c1 (stereo not drawn) [Compound Y206-4328]
- remaining activity at 2200 µM ([1]; residual activity): 116%
- Solubility at tested concentrations ([2]; tested concentration 2.2 mM): not soluble

SMILES: O=C(O)c1ccc(-c2ccccc2)nc1O [Compound D724-1054]
- Solubility at tested concentrations [3, 5]: not soluble

SMILES: CCc1cc(C(=O)N2CC3(C)CC2CC(C)(C)C3)no1 (stereo not drawn) [Compound C226-2780]
- remaining activity at 2200 µM ([1]; residual activity): 25%
- Solubility at tested concentrations ([2]; tested concentration 2.2 mM): not soluble

SMILES: COC(=O)c1cc2occc2n1Cc1ccccc1Cl [Compound C777-0071]
- remaining activity at 1700 µM ([1]; residual activity): 82%
- Solubility at tested concentrations ([2]; tested concentration 1.7 mM): not soluble

SMILES: COc1cccc(NC2=NS(=O)(=O)c3ccccc32)c1 [Compound 8005-1580]
- remaining activity at 1700 µM ([1]; residual activity): 50%
- Solubility at tested concentrations ([2]; tested concentration 1.7 mM): not soluble

SMILES: Cc1ccc(-c2c(N(C)c3ccc(C)cc3)c(=O)c2=O)cc1 [Compound E470-0191]
- remaining activity at 1700 µM [1]: 73%
- Solubility at tested concentrations ([3]; tested concentration 1.7 mM): not soluble

SMILES: O=C1COc2ccccc2N1Cc1ccc2c(c1)OCO2 [Compound 8018-5756]
- remaining activity at 1800 µM ([1]; residual activity): 103%
- Solubility at tested concentrations ([2]; tested concentration 1.8 mM): not soluble

SMILES: CCCNc1c(-c2ccc(C(C)C)cc2)c(=O)c1=O [Compound E511-0830]
- remaining activity at 1900 µM [1]: 101%
- Solubility at tested concentrations ([3]; tested concentration 1.9 mM): not soluble

SMILES: CC1CCCC(NC(=O)c2ccc(Cl)cc2)C1C (stereo not drawn) [Compound Y502-2265]
- remaining activity at 2300 µM ([1]; residual activity, tested concentration 2.3 mM): 91%
- Solubility at tested concentrations ([2]; tested concentration 2.3 mM): not soluble

SMILES: Cc1cccc(Nc2c(-c3ccccc3)c(=O)c2=O)c1 [Compound E470-0476]
- remaining activity at 1900 µM [1]: 43%
- Solubility at tested concentrations ([3]; tested concentration 1.9 mM): not soluble

SMILES: Cc1cc2nc(COC(=O)c3ccccc3)cc(=O)n2o1 [Compound G265-0746]
- remaining activity at 1800 µM [1]: -1%
- Solubility at tested concentrations ([3]; tested concentration 1.8 mM): not soluble

SMILES: O=C(O)c1cc(-c2ccccc2)nc2c(Cl)cnn12 [Compound Y504-7719]
- remaining activity at 2200 µM ([1]; residual activity): 90%
- Solubility at tested concentrations ([2]; tested concentration 2.2 mM): not soluble

SMILES: O=C(O)c1cnc2cc(Cl)ccc2c1O [Compound Y042-3116]
- remaining activity at 2200 µM [1]: 44%
- Solubility at tested concentrations ([3]; tested concentration 2.2 mM): not soluble

SMILES: Cc1ccccc1N(C)C(=O)Cc1noc2ccccc12 [Compound E207-0386]
- remaining activity at 2100 µM ([1]; residual activity): 102%
- Solubility at tested concentrations ([2]; tested concentration 2.1 mM): not soluble

SMILES: c1ccc(-c2nnc(CC34CC5CC(CC(C5)C3)C4)o2)nc1 [Compound Y502-6922]
- Solubility at tested concentrations [3, 5]: not soluble

SMILES: Cc1cccc(CC(=O)Nc2cccc(C(=O)O)c2)c1 [Compound Y206-6127]
- remaining activity at 1900 µM [1]: 58%
- Solubility at tested concentrations ([3]; tested concentration 1.9 mM): not soluble

SMILES: NS(=O)(=O)c1ccc(NC(=O)C2CCCC2)cc1 [Compound Y205-5953]
- remaining activity at 1900 µM [1]: 62%
- Solubility at tested concentrations ([3]; tested concentration 1.9 mM): not soluble

SMILES: OC1CCCc2c1[nH]c1ccc(Br)cc21 (stereo not drawn) [Compound 8010-6263]
- remaining activity at 1900 µM ([1]; residual activity): 29%
- Solubility at tested concentrations ([2]; tested concentration 1.9 mM): not soluble

SMILES: Cc1cccc2c(O)c(C(=O)O)cnc12 [Compound 4491-1619]
- Solubility at tested concentrations [3, 5]: not soluble

SMILES: CCc1c(C)[nH]c(=O)c(C(=O)O)c1C#N [Compound 8020-6317]
- Solubility at tested concentrations [3, 5]: not soluble

SMILES: Cc1cc(C)c2ccc(/C=N/O)nc2c1O [Compound 0422-0035]
- Solubility at tested concentrations [3, 5]: not soluble

SMILES: COc1ccc(Cc2ccc(F)cc2)cc1B(O)O [Compound 8020-3675]
- remaining activity at 1900 µM [1]: 52%
- Solubility at tested concentrations ([3]; tested concentration 1.9 mM): not soluble

SMILES: O=c1c(NCCN2CCCCCC2)c(-c2ccccc2)c1=O [Compound E470-0490]
- remaining activity at 1700 µM [1]: 88%
- Solubility at tested concentrations ([3]; tested concentration 1.7 mM): not soluble

SMILES: O=C(O)c1cc(-c2ccc3ccccc3c2)[nH]n1 [Compound R052-2028]
- remaining activity at 2100 µM [1]: 50%
- Solubility at tested concentrations ([3]; tested concentration 2.1 mM): not soluble

SMILES: CC1CCN(c2c(-c3ccccc3)c(=O)c2=O)CC1 [Compound E470-0346]
- remaining activity at 2000 µM [1]: 98%
- Solubility at tested concentrations ([3]; tested concentration 2.0 mM): not soluble

SMILES: CC1CCN(C(=O)CC2(n3cccc3)CCCCC2)CC1 [Compound Y042-5984]
- remaining activity at 1700 µM ([1]; residual activity): 90%
- Solubility at tested concentrations ([2]; tested concentration 1.7 mM): not soluble

SMILES: CC1Cc2ccccc2N1c1c(-c2ccccc2)c(=O)c1=O (stereo not drawn) [Compound E470-0446]
- remaining activity at 1700 µM [1]: 2.16%
- Solubility at tested concentrations ([3]; tested concentration 1.7 mM): not soluble

SMILES: O=C1CSC(c2ccccc2)N1CCc1ccccc1 (stereo not drawn) [Compound 1410-0151]
- remaining activity at 1800 µM [1]: 134%
- Solubility at tested concentrations ([3]; tested concentration 1.8 mM): not soluble

SMILES: O=c1c(NCc2ccco2)c(-c2ccccc2)c1=O [Compound E470-0461]
- remaining activity at 2000 µM [1]: 137%
- Solubility at tested concentrations ([3]; tested concentration 2.0 mM): not soluble

SMILES: O=c1c(NCC2CCCO2)c(-c2ccccc2)c1=O (stereo not drawn) [Compound E470-0384]
- remaining activity at 1900 µM [1]: 81%
- Solubility at tested concentrations ([3]; tested concentration 1.9 mM): not soluble

SMILES: O=C(O)c1nccnc1C(=O)Nc1cccc(Cl)c1 [Compound C612-0847]
- remaining activity at 1800 µM ([1]; residual activity): 52%
- Solubility at tested concentrations ([4]; tested concentration 1.8 mM): not soluble

SMILES: O=C(O)c1ccc(N2Cc3ccccc3C2)cc1O [Compound 8005-9285]
- remaining activity at 2000 µM ([1]; residual activity): 61%
- Solubility at tested concentrations ([4]; tested concentration 2.0 mM): not soluble

SMILES: Oc1cc(-c2ccccc2)cc2c1nnc1ncnn12 [Compound Y021-2954]
- remaining activity at 1900 µM ([1]; residual activity): 79%
- Solubility at tested concentrations ([4]; tested concentration 1.9 mM): not soluble

SMILES: Cc1cc(C)c(S(=O)(=O)N(C)C2CCCCC2)c(C)c1 [Compound Y030-0169]
- Solubility at tested concentrations [3, 5]: not soluble

SMILES: Cc1cccc(CNC(=O)c2ccc3cccc(O)c3n2)c1 [Compound C066-5543]
- remaining activity at 1700 µM ([1]; residual activity): 94%
- Solubility at tested concentrations ([4]; tested concentration 1.7 mM): not soluble

SMILES: O=C(O)c1cnc2ccc(F)cc2c1O [Compound Y042-3098]
- remaining activity at 2400 µM ([1]; tested concentration 2.4 mM): 53%
- Solubility at tested concentrations ([3]; tested concentration 2.4 mM): not soluble

SMILES: CC1CCN(S(=O)(=O)c2cnc(O)[nH]c2=O)CC1 [Compound D668-0109]
- remaining activity at 1800 µM ([1]; residual activity): 97%
- Solubility at tested concentrations ([4]; tested concentration 1.8 mM): not soluble

SMILES: COCCNc1c(-c2ccc(C)cc2)c(=O)c1=O [Compound E470-0131]
- remaining activity at 2000 µM [1]: 78%
- Solubility at tested concentrations ([4]; tested concentration 2.0 mM): not soluble

SMILES: COc1ccc(-c2ccc(C(=O)O)c(=O)[nH]2)cc1 [Compound D724-1039]
- remaining activity at 2000 µM ([1]; residual activity): 76%
- Solubility at tested concentrations ([4]; tested concentration 2.0 mM): not soluble

Reference: article PMC9718554, “Discovery of a fragment hit compound targeting D-Ala:D-Ala ligase of bacterial peptidoglycan biosynthesis” (Journal of Enzyme Inhibition and Medicinal Chemistry, 2022)
